Experimental data from patent US9073835B2, “N-acylthiourea and N-acylurea inhibitors of the Hedgehog protein signalling pathway” (Centre National De La Recherche Scientifique, priority 2008, dated 2015).

Tests used:
[1] = tested on: Hedgehog protein signaling pathway; experiment: Inhibition of SAG-induced alkaline phosphatase activity (differentiation) in C3H10T1/2 cells; assay type: cell-based; conditions: for inhibition at 10 µM: C3H 10T1/2, 10 μM test compound
Procedure: The effect of compounds with formula (I) as claimed in the invention on inhibition of the Hedgehog protein signaling pathway was determined by analysis of differentiation in the pluripotent fibroblast cell line C3H10T1/2 after activation of this pathway in these cells using a synthetic activator: SAG.
The compounds with formula (I) to be tested were dissolved in dimethylsulfoxide to a concentration of 10 mM, then stored at a temperature of −20° C. until use.
The pluripotent fibroblast cell line C3H10T1/2 (ATCC) was cultivated under the conditions recommended by the ATCC. These cells were activated using 0.1 μM of SAG, employing the methods described by Chen et al., Proc. Natl. Acad. Sci. USA, 2002, 99, 14071 and Frank-Kamenetsky et al., J. Biol., 2002, 1, 10.
Activation with SAG provokes differentiation of the cell line and allows them to express alkaline phosphatase. It is then possible to measure the activity of the Hedgehog protein signaling pathway by measuring the alkaline phosphatase activity.
The C3H10T1/2 cells were plated onto 96-well plates at a density of […], 24 hours before addition of the test compounds in a concentration of 1 nM to 30 μM and in the presence of 0.1 μM of SAG using DMEM supplemented with 10% fetal calf serum as the culture medium. The tests were carried out in quadruplicate. The plates were then incubated for 5-6 days at a temperature of 37° C. in an atmosphere of 5% CO2. The cells were washed in a cold phosphate buffer (“Phosphate Buffer Serum”: PBS) then lysed by sonication at 4° C. in 50 μl of a solution containing 0.9% of NaCl and 0.2% of Triton X-100.
By way of comparison, the activity of a known inhibitor of the Hedgehog protein signaling pathway, CURIS 61 414, as described, for example, by Frank-Kamenetsky M. et al. (J. Biol., 2002, 1, 10), was tested under the same conditions as those used to test the various compounds with formula (I) as claimed in the invention.
The alkaline phosphatase activity measurement in the lysates obtained was then carried out using the method described by Pepinsky et al. (J. Biol. Chem., 1998, 273, 14037). After adding 100 μl of reaction buffer (200 mM Tris-HCl; pH 10.5; 0.4 M of 2-amino-2-methylpropanol and 8 mM of MgCl2) and 50 μl of substrate (4 mM of disodium p-nitrophenyl phosphate), the lysates were incubated at 37° C. for 30-60 min, then the optical density was read at a wavelength of 415 nm.

mouse Smoothened protein = biological target: T1, mouse Smoothened protein (Mus musculus, UniProt P56726); experiment: Competitive Bodipycyclopamine binding on HEK293 cells transfected with mouse Smoothened; conditions: for IC50: 5 nM Bodipycyclopamine, 2 hours at 37° C., HEK293 cells expressing mouse Smoothened; for Bodipycyclopamine binding competition: fluorescence microscopy, FIGS. 2 and 3
T1 construct: expressed in transfected cells; host or cells: HEK293
T1 sequence (P56726 33-793): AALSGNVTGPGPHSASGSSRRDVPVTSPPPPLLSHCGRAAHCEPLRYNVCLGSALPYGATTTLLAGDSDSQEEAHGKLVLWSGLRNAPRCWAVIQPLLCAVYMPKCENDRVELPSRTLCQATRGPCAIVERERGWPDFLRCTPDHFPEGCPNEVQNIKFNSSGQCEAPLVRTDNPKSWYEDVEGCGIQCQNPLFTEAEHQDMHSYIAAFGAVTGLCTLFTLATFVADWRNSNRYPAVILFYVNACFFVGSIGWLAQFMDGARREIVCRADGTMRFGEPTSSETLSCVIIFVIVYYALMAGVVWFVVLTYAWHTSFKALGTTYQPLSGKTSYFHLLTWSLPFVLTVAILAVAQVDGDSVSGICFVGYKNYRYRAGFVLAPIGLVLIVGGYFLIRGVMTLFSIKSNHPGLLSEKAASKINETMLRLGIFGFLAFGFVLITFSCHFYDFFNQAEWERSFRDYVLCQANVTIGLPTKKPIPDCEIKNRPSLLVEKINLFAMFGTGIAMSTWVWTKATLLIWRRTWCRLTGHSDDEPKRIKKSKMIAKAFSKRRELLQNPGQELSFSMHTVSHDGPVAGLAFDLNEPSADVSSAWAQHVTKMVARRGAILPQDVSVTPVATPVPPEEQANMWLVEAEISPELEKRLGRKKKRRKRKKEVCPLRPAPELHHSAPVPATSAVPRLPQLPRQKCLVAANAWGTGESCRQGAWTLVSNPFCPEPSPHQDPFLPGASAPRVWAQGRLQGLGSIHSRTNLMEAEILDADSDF
Procedure: HEK293 cells were plated in a quantity of 70 000 cells per well onto glass cover slips treated with poly-D-lysine into 24-well plates, and transfected the next day with 0.25 μg of plasmid encoding the mouse Smoothened protein (Masdeu C., Faure H., Coulombe J., Schoenfelder A., Mann A., Brabet I., Pin J-P., Traiffort E. and Ruat M., Identification and characterization of Hedgehog modulator properties after functional coupling of Smoothened to G15, Biochem Biophys Res. Commun., 2006, 349:471-479), using 0.7 μL of fugene6 (Roche Biochemicals). After 48 hours, the culture medium was eliminated, the cells were rinsed once with 1 mL of a phosphate buffer solution, PBS (Phosphate Buffered Saline), then fixed for 20 minutes in the presence of an iced 4% solution of paraformaldehyde (PFA) and 0.12M glucose in a PBS phosphate buffer solution. The cells were then rinsed twice and washed twice for 5 minutes with 1 mL of a phosphate buffer solution and 0.5% of fetal calf serum (PBS-FCS). Next, 1 mL of Bodipycyclopamine (BC) (Chen, J. K., Taipale, J., Cooper, M. K., and Beachy, P. A., Genes Dev., 2002, 16 (21), 2743-2748), diluted to 5 nM in PBS-FCS, in the presence of compounds 31 and 38 of the invention, was applied to the cells for 2 hours at 37° C. The cells were then washed twice for 5 minutes with 1 mL of PBS-FCS and brought into the presence of 1 mL of a PBS 1× phosphate buffer solution. Finally, the cover slips were mounted on a glass slide in the presence of Vectashield containing DAPI (4′,6′-DiAmidino-2-Phenyl Indole) to stain the cell nuclei (Vector).
In FIG. 2, the intensity of the fluorescence was analyzed using Simple PCI 6.2 software (Hamamatsu Corporation), then related to the surface area of the nuclei present in the photograph.

[2] = Mus musculus, percentage of alkaline phosphatase activity induced by SAG
[3] = Mus musculus, C3H 10T1/2, after induction by 0.1 μM SAG

Row | Compound | inhibition at 10 µM [1, 2] [%] | IC50 [1, 3] [µM] | also measured
1 | COc1ccc(C(=O)Nc2cccc(NC(=S)NC(=O)c3cc(OC)c(OC)c(OC)c3)c2)cc1 [Compound 1, N-[[[3-(4-methoxy-benzoylamino)phenyl]amino]thioxomethyl]-3,4,5-methoxy-benzamide] | > 80 | 1 to 3 | melting point: 147 °C
2 | COc1cc(C(=O)NC(=O)Nc2cccc(NC(=O)c3ccccc3)c2)cc(OC)c1OC [Compound 31, N-[[[3-(benzoylamino)phenyl]amino]oxomethyl]-3,4,5-methoxy-benzamide] | > 80 | 0.01 to 1 | IC50 (mouse Smoothened protein): 0.12 µM; Bodipycyclopamine binding competition (mouse Smoothened protein): binding competition was observed
3 | COc1cc(C(=O)NC(=S)Nc2ccc(Cl)c(C(=O)Nc3ccc(N(C)C)cc3)c2)cc(OC)c1OC [Compound 39] | > 80 | 1 to 3 | –
4 | COc1ccc(NC(=O)c2cc(NC(=S)NC(=O)c3cc(OC)c(OC)c(OC)c3)ccc2Cl)cc1 [Compound 40] | 20 to 80 | – | –
5 | COc1cc(C(=O)NC(=S)Nc2cc(Br)cc(C(=O)Nc3ccccc3)c2)cc(OC)c1OC [Compound 41] | 20 to 80 | – | –
6 | COc1cc(C(=O)NC(=S)Nc2ccc(Cl)c(C(=O)Nc3ccc(Cl)cc3)c2)cc(OC)c1OC [Compound 43] | > 80 | – | –
7 | COc1cc(C(=O)NC(=O)Nc2ccc(Cl)c(C(=O)Nc3ccccc3)c2)cc(OC)c1OC [Compound 44] | 20 to 80 | – | –
8 | COc1cc(C(=O)NC(=O)Nc2cccc(NC(=O)c3ccc(-c4ccccc4)cc3)c2C)cc(OC)c1OC [Compound 45] | > 80 | 0.01 to 1 | –
9 | COc1cc(C(=O)NC(=S)Nc2cccc(NC(=O)c3ccc(-c4ccccc4)cc3)c2C)cc(OC)c1OC [Compound 46] | 5 to 20 | – | –
10 | COc1cc(C(=O)NC(=O)Nc2cccc(NC(=O)c3ccc(Cl)cc3)c2)cc(OC)c1OC [Compound 47, N-[[[-3-(4-chloro-benzoylamino)phenyl]amino]oxomethyl]-3,4,5-methoxy-benzamide] | > 80 | – | –
11 | COc1cc(OC)c(C(=O)NC(=O)Nc2cccc(NC(=O)c3ccccc3)c2)cc1OC [Compound 48, N-[[[-3-(benzoylamino)phenyl]amino]oxomethyl]-2,4,5-methoxy-benzamide] | 20 to 80 | 1 to 3 | –
12 | COc1ccc(C(=O)NC(=O)Nc2cccc(NC(=O)c3ccccc3)c2)cc1 [Compound 49, N-[[[-3-(benzoylamino)phenyl]amino]oxomethyl]-4-methoxy-benzamide] | 20 to 80 | – | –
13 | O=C(NC(=O)c1ccccc1)Nc1cccc(NC(=O)c2ccccc2)c1 [Compound 50, N-[[[-3-(benzoylamino)phenyl]amino]oxomethyl]-benzamide] | > 80 | – | –
14 | COc1cc(C(=O)NC(=S)Nc2cccc(NC(=O)Nc3ccccc3)c2)cc(OC)c1OC [Compound 51, 3,4,5-trimethoxy-N-(3-(3-phenylureido)phenylcarbamothioyl)-benzamide] | > 80 | 1 to 3 | –
15 | COc1cc(C(=O)NC(=S)Nc2cccc(NC(=O)Nc3ccc(-c4ccccc4)cc3)c2)cc(OC)c1OC [Compound 52, N-(3-(3-biphenyl-4-ylureido)phenylcarbamothioyl)-3,4,5-trimethoxybenzamide] | > 80 | 0.01 to 1 | –
16 | COc1cc(C(=O)NC(=O)Nc2cccc(-c3cc4ccccc4[nH]3)c2)cc(OC)c1OC [Compound 53, N-(3-(1H-indol-2-yl)phenylcarbamoyl)-3,4,5-trimethoxybenzamide] | > 80 | 0.01 to 1 | –
17 | COc1cc(C(=O)NC(=S)Nc2cccc(-c3cn4ccccc4n3)c2)cc(OC)c1OC [Compound 55, N-(3-(imidazo[1,2-a]pyridin-2-yl)phenylcarbamothioyl)-3,4,5-trimethoxybenzamide] | > 80 | 0.01 to 1 | –
18 | COc1cc(C(=O)NC(=S)Nc2ccc(C)c(-c3nc4ccccc4[nH]3)c2)cc(OC)c1OC [Compound 56, N-(3-(1H-benzo[d]imidazol-2-yl)-4-methylphenylcarbamothioyl)-3,4,5-trimethoxybenzamide] | 20 to 80 | – | –
19 | COc1cc(C(=O)NC(=S)Nc2cccc(-n3ccc4ccccc43)c2)cc(OC)c1OC [Compound 57, N-(3-(1H-indol-1-yl)phenylcarbamothioyl)-3,4,5-trimethoxybenzamide] | > 80 | 1 to 3 | –
20 | COc1cc(C(=O)NC(=S)Nc2cccc(-c3cn4ccsc4n3)c2)cc(OC)c1OC [Compound 58, N-(3-(imidazo[2,1-b]thiazol-6-yl)phenylcarbamothioyl)-3,4,5-trimethoxybenzamide] | > 80 | 1 to 3 | –
21 | COc1cc(C(=O)NC(=O)Nc2cccc(NC(=O)Nc3ccc(-c4ccccc4)cc3)c2)cc(OC)c1OC [Compound 59, N-(3-(3-biphenyl-4-ylureido)phenylcarbamoyl)-3,4,5-trimethoxybenzamide] | > 80 | – | –
22 | CC1=C2C[C@H]3[C@@H](CC=C4C[C@@H](O)CC[C@@]43C)[C@@H]2CC[C@]12O[C@@H]1C[C@H](C)CN[C@H]1[C@H]2C [Cyclopamine, reference compound] | – | – | Bodipycyclopamine binding competition (mouse Smoothened protein): binding competition was observed
23 | N-[[[3-(benzoylamino)phenyl]amino]thioxomethyl]-3,4,5-methoxy-benzamide [Compound 38] | – | – | % INHIBITION of alkaline phosphatase activity ([1]; 10 μM test compound, percentage of alkaline phosphatase activity induced by SAG): A (the letter A corresponds to an inhibition of more than 80%); IC50 ([1]; after induction by 0.1 μM SAG): 0.01 to 1 µM; IC50 (mouse Smoothened protein): 0.5 µM; Bodipycyclopamine binding competition (mouse Smoothened protein): binding competition was observed
